Measurements taken from patent US7550451B2, “Progesterone receptor modulators with increased antigonadotropic activity for female birth control and hormone replacement therapy” (Bayer Schering Pharma AG, priority 2002, dated 2009).

Legend:
Androgen receptor = target: T1, Androgen receptor (Rattus norvegicus, UniProt P15207); assay: Receptor binding affinity, androgen receptor (competitive binding, 3H-metribolone); settings: prostate cytosol of castrated rat; for AR relative molar binding affinity (RBA) a) against RU 1881: reference RU 1881 (metribolone); for AR relative molar binding affinity (RBA) b) against dihydrotestosterone (DHT): reference dihydrotestosterone
T1 construct: Prostate cytosol of the castrated rat; from tissue; host or cells: prostate cytosol of castrated rat
T1 sequence (P15207 1-902): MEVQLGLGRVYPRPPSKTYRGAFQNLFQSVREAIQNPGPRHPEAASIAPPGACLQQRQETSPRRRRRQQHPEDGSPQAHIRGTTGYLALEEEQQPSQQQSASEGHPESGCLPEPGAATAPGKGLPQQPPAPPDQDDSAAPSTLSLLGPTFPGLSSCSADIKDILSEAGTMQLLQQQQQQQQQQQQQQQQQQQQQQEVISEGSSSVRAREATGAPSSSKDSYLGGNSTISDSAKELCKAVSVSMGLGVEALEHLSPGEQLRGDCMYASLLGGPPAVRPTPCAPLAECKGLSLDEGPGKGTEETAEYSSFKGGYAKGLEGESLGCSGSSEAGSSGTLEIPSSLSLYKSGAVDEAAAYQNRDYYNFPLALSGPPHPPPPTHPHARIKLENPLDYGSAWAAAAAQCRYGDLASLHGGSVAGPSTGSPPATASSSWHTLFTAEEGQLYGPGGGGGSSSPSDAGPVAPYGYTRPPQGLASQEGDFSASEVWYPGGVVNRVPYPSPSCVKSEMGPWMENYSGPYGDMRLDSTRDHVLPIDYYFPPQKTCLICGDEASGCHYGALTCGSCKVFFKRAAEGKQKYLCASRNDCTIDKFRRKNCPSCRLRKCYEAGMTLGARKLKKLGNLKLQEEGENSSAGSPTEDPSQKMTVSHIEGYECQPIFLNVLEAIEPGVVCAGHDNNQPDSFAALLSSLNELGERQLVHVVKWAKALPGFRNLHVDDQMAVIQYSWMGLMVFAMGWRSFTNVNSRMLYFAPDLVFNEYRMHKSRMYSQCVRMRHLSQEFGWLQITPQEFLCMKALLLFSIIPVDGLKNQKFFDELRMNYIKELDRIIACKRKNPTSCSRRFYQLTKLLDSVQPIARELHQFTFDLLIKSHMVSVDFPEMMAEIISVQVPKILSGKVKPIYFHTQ
Description: (§1) The receptor binding affinity was determined by competitive binding of a specifically binding ^3H-labeled hormone (tracer) and the compound to be tested on receptors in the cytosol from animal target organs. In this case, receptor saturation and reaction equilibrium were sought.
(§2) The tracers and increasing concentrations of the compound to be tested (competitor) were co-incubated with the receptor-containing cytosol fraction at 0-4° C. over 18 hours. After separation of the unbonded tracer with carbon-dextran suspension, the receptor-bonded tracer portion was measured for each concentration, and the IC50 was determined from the concentration sequence. As a quotient of the IC50 values of the reference substance and the compound to be tested (×100%), the relative molar binding affinity (RBA) was calculated (RBA of the reference substance=100%).
Prostate cytosol of the castrated rat; prostates stored at −30° C.; buffer: TED with 10% glycerol as well as 2 μmol of triamcinolone acetonide. Tracer: ^3H-metribolone 4 nmol; reference substances: metribolone (RU 1881) or 5α-dihydrotestosterone.

Glucocorticoid receptor = target: T2, Glucocorticoid receptor (Rattus norvegicus, UniProt P06536); assay: Receptor binding affinity, glucocorticoid receptor (competitive binding, 3H-dexamethasone); settings: Dexamethasone = 100%; thymus cytosol of adrenalectomized rat
T2 construct: Thymus cytosol of the adrenalectomized rat; from tissue; host or cells: thymus cytosol of adrenalectomized rat
T2 sequence (P06536 1-795): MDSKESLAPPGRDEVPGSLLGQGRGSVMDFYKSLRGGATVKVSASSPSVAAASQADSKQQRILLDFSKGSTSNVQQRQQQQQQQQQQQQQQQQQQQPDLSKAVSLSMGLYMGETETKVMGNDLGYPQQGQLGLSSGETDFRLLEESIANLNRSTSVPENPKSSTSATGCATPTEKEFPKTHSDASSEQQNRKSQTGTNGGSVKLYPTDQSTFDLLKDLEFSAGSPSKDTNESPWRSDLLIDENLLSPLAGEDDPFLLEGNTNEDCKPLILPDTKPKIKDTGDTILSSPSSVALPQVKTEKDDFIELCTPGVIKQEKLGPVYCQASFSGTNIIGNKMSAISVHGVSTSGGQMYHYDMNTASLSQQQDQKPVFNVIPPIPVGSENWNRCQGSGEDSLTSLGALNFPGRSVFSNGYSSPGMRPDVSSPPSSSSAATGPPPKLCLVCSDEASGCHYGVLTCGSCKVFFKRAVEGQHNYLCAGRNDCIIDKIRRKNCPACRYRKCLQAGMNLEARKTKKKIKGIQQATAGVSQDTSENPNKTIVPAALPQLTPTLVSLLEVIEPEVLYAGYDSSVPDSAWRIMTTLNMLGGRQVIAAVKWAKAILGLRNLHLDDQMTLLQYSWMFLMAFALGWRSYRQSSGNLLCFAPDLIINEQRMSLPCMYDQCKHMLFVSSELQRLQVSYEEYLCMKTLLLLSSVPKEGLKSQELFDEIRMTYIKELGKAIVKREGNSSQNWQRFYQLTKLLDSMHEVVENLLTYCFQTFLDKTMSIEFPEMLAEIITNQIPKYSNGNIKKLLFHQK
Description: as §1, §2
Thymus cytosol of the adrenalectomized rat, thymi stored at −30° C.; buffer: TED. Tracer: ^3H-Dexamethasone, 20 nmol; reference substance: dexamethasone.

Compound	AR relative molar binding affinity (RBA) a) against RU 1881 (Androgen receptor)	AR relative molar binding affinity (RBA) b) against dihydrotestosterone (DHT) (Androgen receptor)	GR relative molar binding affinity (RBA) (Glucocorticoid receptor) [%]
C[C@]12C[C@H](c3ccc(/C=N/O)cc3)C3=C4CCC(=O)C=C4CC[C@H]3[C@@H]1CC[C@@H]2O [Example 1, 4-(17β-Hydroxy-3-oxoestra-4,9-dien-11β-yl)benzaldehyde-1(E)-oxime]	a) 17%	b) 24%	3
CC1(O)CCC2C3CCC4=CC(=O)CCC4=C3C(c3ccc(C=NO)cc3)CC21C (stereo not drawn) [Example 2, 4-(17β-Hydroxy-17α-methyl-3-oxoestra-4,9-dien-11β-yl)benzaldehyde-1(E)-oxime]	a) 16%	b) 23%	12
